Experimental data reported in patent publication US20060276464A1, “Diarylsulfone sulfonamides and use thereof” (Wyeth, priority 2005, published 2006).

Key:
[1] = target: T1, SFRP-1 (Homo sapiens, UniProt Q8N474); test: Cell-based assay for in vitro measurement of SFRP-1/SARP2 antagonist activity (U2OS cells co-transfected with 16x TCF-tk-Luciferase reporter, Wnt and hSFRP-1);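 further: U2OS cells co-transfected with a TCF-tk luciferase reporter, a Wnt vector, hSFRP-1 or empty vector and CMV-βgal, luciferase luminescence read in cell lysates alongside βgal activity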
T1 sequence (Q8N474 32-314): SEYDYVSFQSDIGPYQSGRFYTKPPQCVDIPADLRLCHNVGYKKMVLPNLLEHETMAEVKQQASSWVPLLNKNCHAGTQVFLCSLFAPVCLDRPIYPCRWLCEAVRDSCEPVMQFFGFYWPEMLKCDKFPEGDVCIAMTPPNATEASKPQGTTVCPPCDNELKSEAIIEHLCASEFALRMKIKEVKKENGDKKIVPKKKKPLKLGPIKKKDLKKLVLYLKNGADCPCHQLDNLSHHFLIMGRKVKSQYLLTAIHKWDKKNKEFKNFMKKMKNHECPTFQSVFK

[2] = target: T1, SFRP-1; test: Fluorescence polarization binding assay (competitive displacement of a probe compound from SFRP-1); conditions: fluorescence anisotropy, 45 nM SFRP-1, 20 nM probe;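 further: test compound competes with a fluorescent probe held by SFRP-1, seen as a drop in probe anisotropy after incubation in darkness, with anisotropy as function of rising compound dose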

SMILES | EC50 [1] [nM] | IC50 [2] [nM]
O=S(=O)(NCCc1ccc(-c2nn[nH]n2)cc1)c1cc(S(=O)(=O)c2ccccc2)ccc1C(F)(F)F [Example 984, 5-(phenylsulfonyl)-N-{2-[4-(2H-tetrazol-5-yl)phenyl]ethyl}-2-(trifluoromethyl)benzenesulfonamide] | 657 | 200
COc1ccc2c(c1)CC(NS(=O)(=O)c1cc(S(=O)(=O)c3ccccc3)ccc1C(F)(F)F)C2 (stereo not drawn) [Example 991, N-(5-methoxy-2,3-dihydro-1H-inden-2-yl)-5-(phenylsulfonyl)-2-(trifluoromethyl)benzenesulfonamide] | 2640 | 80
O=C(O)c1cccc(-c2cccc(CNS(=O)(=O)c3cc(S(=O)(=O)c4ccccc4)ccc3C(F)(F)F)c2)c1 [Example 996, 3′-[({[5-(phenylsulfonyl)-2-(trifluoromethyl)phenyl]sulfonyl}amino)methyl]biphenyl-3-carboxylic acid] | 3010 | 300
O=C(O)c1ccc(-c2cccc(CNS(=O)(=O)c3cc(S(=O)(=O)c4ccccc4)ccc3C(F)(F)F)c2)cc1 [Example 997, 3′-[({[5-(phenylsulfonyl)-2-(trifluoromethyl)phenyl]sulfonyl}amino)methyl]biphenyl-4-carboxylic acid] | 3080 | 900
N=C(N)Nc1ccc(CCNS(=O)(=O)c2cc(S(=O)(=O)c3ccccc3)ccc2C(F)(F)F)cc1 [Example 998, N-[2-(4-{[amino(imino)methyl]amino}phenyl)ethyl]-5-(phenylsulfonyl)-2-(trifluoromethyl)benzenesulfonamide] | 2200 | 300
COc1ccc(S(=O)(=O)c2ccc(C(F)(F)F)c(S(=O)(=O)NC3CCNCC3)c2)cc1 [Example 999, 5-[(4-methoxyphenyl)sulfonyl]-N-piperidin-4-yl-2-(trifluoromethyl)benzenesulfonamide] | 789 | 800
O=S(=O)(NC1Cc2ccc(O)cc2C1)c1cc(S(=O)(=O)c2ccccc2)ccc1C(F)(F)F (stereo not drawn) [Example 1004, N-(5-hydroxy-2,3-dihydro-1H-inden-2-yl)-5-(phenylsulfonyl)-2-(trifluoromethyl)benzenesulfonamide] | 473 | 60
COP(=O)(Cc1ccc(C(=O)N(C)CCNS(=O)(=O)c2cc(S(=O)(=O)c3ccccc3)ccc2C(F)(F)F)cc1)OC [Example 1006, dimethyl [4-({methyl[2-({[5-(phenylsulfonyl)-2-(trifluoromethyl)phenyl]sulfonyl}amino)ethyl]amino}carbonyl)benzyl]phosphonate] | 8160 | 180
O=C(c1ccc(=O)n(S(=O)(=O)c2cc(S(=O)(=O)c3ccccc3)ccc2C(F)(F)F)c1)N1CCC(NS(=O)(=O)c2cc(S(=O)(=O)c3ccccc3)ccc2C(F)(F)F)CC1 [Example 1020, N-{1-[(6-oxo-1-{[5-(phenylsulfonyl)-2-(trifluoromethyl)phenyl]sulfonyl}-1,6-dihydropyridin-3-yl)carbonyl]piperidin-4-yl}-5-(phenylsulfonyl)-2-(trifluoromethyl)benzenesulfonamide] | 264 | 600
COc1ccc(CNS(=O)(=O)c2cc(S(=O)(=O)c3ccccc3)ccc2C(F)(F)F)c(OC)c1 [Example 1021, N-(2,4-dimethoxybenzyl)-5-(phenylsulfonyl)-2-(trifluoromethyl)benzenesulfonamide] | > 10000 | 200
O=C(c1ccc(-c2ccccc2)nc1)N1CCC(NS(=O)(=O)c2cc(S(=O)(=O)c3ccccc3)ccc2C(F)(F)F)CC1 [Example 1024, N-{1-[(6-phenylpyridin-3-yl)carbonyl]piperidin-4-yl}-5-(phenylsulfonyl)-2-(trifluoromethyl)benzenesulfonamide] | 236 | 200

Second part, the molecule after the results:

EC50 [1] [nM] | IC50 [2] [nM] | SMILES
853 | 400 | CN(CCNS(=O)(=O)c1cc(S(=O)(=O)c2ccccc2)ccc1C(F)(F)F)C(=O)NC1CCN(C(=O)CCC(=O)O)CC1 [Example 980, 4-{4-[({methyl[2-({[5-(phenylsulfonyl)-2-(trifluoromethyl)phenyl]sulfonyl}amino)ethyl]amino}carbonyl)amino]piperidin-1-yl}-4-oxobutanoic acid]
1140 | 800 | CN(CCNS(=O)(=O)c1cc(S(=O)(=O)c2ccccc2)ccc1C(F)(F)F)C(=O)c1ccc(CBr)cc1 [Example 983, 4-(bromomethyl)-N-methyl-N-[2-({[5-(phenylsulfonyl)-2-(trifluoromethyl)phenyl]sulfonyl}amino)ethyl]benzamide]
231 | 140 | CS(=O)(=O)Nc1ccc(CCNS(=O)(=O)c2cc(S(=O)(=O)c3ccccc3)ccc2C(F)(F)F)cc1 [Example 987, N-(2-{4-[(methylsulfonyl)amino]phenyl}ethyl)-5-(phenylsulfonyl)-2-(trifluoromethyl)benzenesulfonamide]
1890 | 1100 | CC(C)(C)OC(=O)NCCCNS(=O)(=O)c1cc(S(=O)(=O)c2ccccc2)ccc1C(F)(F)F [Example 988, tert-butyl [3-({[5-(phenylsulfonyl)-2-(trifluoromethyl)phenyl]sulfonyl}amino)propyl]carbamate]
577 | 130 | CN(CCNS(=O)(=O)c1cc(S(=O)(=O)c2ccccc2)ccc1C(F)(F)F)C(=O)N[C@@H]1CCN(C(=O)OC(C)(C)C)C1 [Example 990, tert-butyl (3R)-3-[({methyl[2-({[5-(phenylsulfonyl)-2-(trifluoromethyl)phenyl]sulfonyl}amino)ethyl]amino}carbonyl)amino]pyrrolidine-1-carboxylate]
3160 | 700 | CN(CCCNS(=O)(=O)c1cc(S(=O)(=O)c2ccccc2)ccc1C(F)(F)F)C(=O)CCC(=O)O [Example 992, 4-{methyl[3-({(5-(phenylsulfonyl)-2-(trifluoromethyl)phenyl]sulfonyl}amino)propyl]amino}-4-oxobutanoic acid]
2290 | 1500 | NCCCNS(=O)(=O)c1cc(S(=O)(=O)c2ccccc2)ccc1C(F)(F)F [Example 993, N-(3-aminopropyl)-5-(phenylsulfonyl)-2-(trifluoromethyl)benzenesulfonamide]
399 | 140 | CC(C(N)=O)N1CCC(NS(=O)(=O)c2cc(S(=O)(=O)c3ccccc3)ccc2C(F)(F)F)CC1 (stereo not drawn) [Example 1003, 2-[4-({[5-(phenylsulfonyl)-2-(trifluoromethyl)phenyl]sulfonyl}amino)piperidin-1-yl]propanamide]
1520 | 900 | CN(CCNS(=O)(=O)c1cc(S(=O)(=O)c2ccccc2)ccc1C(F)(F)F)C(=O)N(C)C1CCNCC1 [Example 1007, N-[2-(methyl{[methyl(piperidin-4-yl)amino]carbonyl}amino)ethyl]-5-(phenylsulfonyl)-2-(trifluoromethyl)benzenesulfonamide]
936 | 3000 | CN(CCNS(=O)(=O)c1cc(S(=O)(=O)c2ccccc2)ccc1C(F)(F)F)C(=O)N[C@@H]1CCNC1 [Example 1008, N-[2-(methyl{[(3R)-pyrrolidin-3-ylamino]carbonyl}amino)ethyl]-5-(phenylsulfonyl)-2-(trifluoromethyl)benzenesulfonamide]
945 | 210 | CN(CCNS(=O)(=O)c1cc(S(=O)(=O)c2ccccc2)ccc1C(F)(F)F)C(=O)N[C@@H]1CCCN(C(=O)OC(C)(C)C)C1 [Example 1009, tert-butyl (3R)-3-[({methyl[2-({[5-(phenylsulfonyl)-2-(trifluoromethyl)phenyl]sulfonyl}amino)ethyl]amino}carbonyl)amino]piperidine-1-carboxylate]
2000 | 600 | CN(CCNS(=O)(=O)c1cc(S(=O)(=O)c2ccccc2)ccc1C(F)(F)F)C(=O)N[C@H]1CCCN(C(=O)OC(C)(C)C)C1 [Example 1010, tert-butyl (3S)-3-[({methyl[2-({[5-(phenylsulfonyl)-2-(trifluoromethyl)phenyl]sulfonyl}amino)ethyl]amino}carbonyl)amino]piperidine-1-carboxylate]
277 | 158 | O=S(=O)(N[C@H]1CC[C@H](O)CC1)c1cc(S(=O)(=O)c2ccccc2)ccc1C(F)(F)F [Example 1013, N-(trans-4-hydroxycyclohexyl)-5-(phenylsulfonyl)-2-(trifluoromethyl)benzenesulfonamide]
898 | 290 | O=S(=O)(NC1CCN(CCN2CCOCC2)CC1)c1cc(S(=O)(=O)c2ccccc2)ccc1C(F)(F)F [Example 1019, N-[1-(2-morpholin-4-ylethyl)piperidin-4-yl]-5-(phenylsulfonyl)-2-(trifluoromethyl)benzenesulfonamide]
726 | 170 | CN(CCNS(=O)(=O)c1cc(S(=O)(=O)c2ccccc2)ccc1C(F)(F)F)C(=O)N[C@@H]1CCCNC1 [Example 1022, N-[2-(methyl{[(3R)-piperidin-3-ylamino]carbonyl}amino)ethyl]-5-(phenylsulfonyl)-2-(trifluoromethyl)benzenesulfonamide]
547 | 210 | CN(CCNS(=O)(=O)c1cc(S(=O)(=O)c2ccccc2)ccc1C(F)(F)F)C(=O)N[C@H]1CCCNC1 [Example 1023, N-[2-(methyl{[(3S)-piperidin-3-ylamino]carbonyl}amino)ethyl]-5-(phenylsulfonyl)-2-(trifluoromethyl)benzenesulfonamide]
